# Source: patent publication US9018224B2, “Substituted cyclopropyl compounds useful as GPR119 agonists” (Merck Sharp & Dohme Corp., priority 2011, dated 2015)
# Biological target: T1, human GPR119 (Homo sapiens, UniProt Q8TDV5)
# T1 sequence (Q8TDV5 1-308 limits assumed): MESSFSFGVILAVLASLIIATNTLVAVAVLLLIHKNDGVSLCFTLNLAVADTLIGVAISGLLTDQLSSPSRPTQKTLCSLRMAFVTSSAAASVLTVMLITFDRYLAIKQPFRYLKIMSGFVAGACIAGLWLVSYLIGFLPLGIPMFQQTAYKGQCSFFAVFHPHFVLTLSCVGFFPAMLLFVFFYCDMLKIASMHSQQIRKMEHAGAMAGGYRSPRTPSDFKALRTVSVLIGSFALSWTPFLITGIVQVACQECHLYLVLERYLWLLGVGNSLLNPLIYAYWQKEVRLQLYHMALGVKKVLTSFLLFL
# Experiment: Measurement of GPR119 signaling by cAMP (LANCE cAMP kit or HTRF) in HEK293 cells transfected with human GPR119
# Assay type: cell-based
# Conditions: agonist cAMP response in HEK293 cells stably transfected with human GPR119; patent does not say which of the two cAMP formats (LANCE or HTRF)
# Protocol: Measurement of GPR119 Signaling Using LANCE 384-Well cAMP Kit
# The adenylate cyclase assay was constructed following the LANCE™ cAMP Kit (Perkin Elmer, AD0264) instructions. […] The reaction was stopped by incubating with the supplied detection buffer containing the europium chelate of the Eu-SA/Biotin-cAMP tracer for 3 hours. The assay was performed in duplicate in a 384 well plate for duplicate plates. […] Basal activity was determined using a DMSO control and maximum response was defined as cAMP stimulation produced by an internal agonist control. Standard cAMP concentrations were assayed concurrently for conversion of fluorescence signal to cAMP level. The data was analyzed using 4-parameter curve fit in Microsoft Excel
# Measurement of GPR119 Signaling Using a Cyclic AMP (cAMP) Homogenous Time Resolved Fluorescence (HTRF) Assay
# Chinese hamster ovary (CHO) cell lines stably transfected with the permissive guanine nucleotide binding protein alpha 15 (Gα15) and murine GPR119 were maintained in DMEM media containing FBS, penicillin-streptomycin, puromycin, and G418 (geneticin). […] Agonist activation of the GPR119 receptor was measured in receptor transfected cells described above, treated with compounds of this invention, using a commercial homogenous time resolved fluorescence (HTRF) kit for measurement of cAMP (CisBio, Bedford, Mass.). The assay was performed in 96-well half-volume plates (murine) or 384-well plates (human) following the manufacturers instructions. Briefly, suspended cells were incubated with a dose titration of test compound at room temperature for 60 min, lysed, and incubated with HTRF reagents for an additional 60 min. The plate was read using an Envision multilabel reader (Perkin Elmer) adjusted to read time resolved fluorescence and the cAMP concentrations were extrapolated from a cAMP calibration curve. […] The concentration of test compound required to stimulate a half-maximal response (EC50), and efficacy as compared to an internal agonist control, was determined from a sigmoidal 4-parameter curve fit of the resulting plot of normalized activity versus compound concentration.
row,SMILES,EC50 [nM]
1,"Cc1cc(OCC[C@@H]2C[C@@H]2C2CCN(c3ncc(Cl)cn3)CC2)ccc1CC(=O)N1CCC1 [Example 15, 1-(azetidin-1-yl)-2-[4-(2-{(1S,2R)-2-[1-(5-chloropyrimidin-2-yl)piperidin-4-yl]cyclopropyl}ethoxy)-2-methylphenyl]ethanone]",0.73
2,O=C(Cc1ccc(OCC[C@@H]2C[C@@H]2C2CCN(c3ncc(Cl)cn3)CC2)cc1F)NC1CCCC1 [Example 83],1.3
3,COc1cnc(N2CCC([C@H]3C[C@H]3CCOc3cc(F)c(CC(=O)N4CCOCC4)c(F)c3)CC2)nc1 [Example 215],0.29
4,CN(CCS(C)(=O)=O)C(=O)Cc1ccc(OCC[C@@H]2C[C@@H]2C2CCN(c3ncc(Cl)cn3)CC2)cc1F [Example 169],3.2
5,COCc1cnc(N2CCC([C@H]3C[C@H]3CCOc3cc(F)c(CC(=O)N4CC(C(C)(C)O)C4)c(F)c3)CC2)nc1 [Example 222],2
6,COCc1cnc(N2CCC([C@H]3C[C@H]3CCOc3ccc(CC(=O)N4CCC4)c(Cl)c3)CC2)nc1 [Example 22],0.83
7,COCc1cnc(N2CCC([C@H]3C[C@H]3CCOc3ccc(CC(=O)N4CCC4)c(C#N)c3)CC2)nc1 [Example 25],1.4
8,Cn1ccc2c1CCN(C(=O)Cc1ccc(OCC[C@@H]3C[C@@H]3C3CCN(c4ncc(Cl)cn4)CC3)cc1F)C2 [Example 145],6.3
9,CC1(NC(=O)Cc2ccc(OCC[C@@H]3C[C@@H]3C3CCN(c4ncc(Cl)cn4)CC3)cc2F)CCCC1 [Example 94],6.5
10,"Fc1cc(OCC[C@@H]2C[C@@H]2C2CCN(c3ncc(Cl)cn3)CC2)ccc1Cc1nnco1 [Example 245, 5-chloro-2-{4-[(1R,2S)-2-(2-{3-fluoro-4-[(1,3,4-oxadizol-2-yl)methyl]phenoxy}ethyl)cyclopropyl]piperidin-1-yl}pyrimidine]",4.1
11,NC(=O)C1CCN1C(=O)Cc1ccc(OCC[C@@H]2C[C@@H]2C2CCN(c3ncc(Cl)cn3)CC2)cc1F (some centres unmarked) [Example 106],4.3
12,COCc1cnc(N2CCC([C@H]3C[C@H]3CCOc3ccc(CC(=O)N(C)C)c(F)c3)CC2)nc1 [Example 47],1.3
13,CCOc1cnc(N2CCC([C@H]3C[C@H]3CCOc3cc(F)c(CC(=O)N4CC(C)(O)C4)c(F)c3)CC2)nc1 [Example 233],0.66
14,COCc1cnc(N2CCC([C@H]3C[C@H]3CCOc3ccc(CC(=O)N4CCCC4(F)F)c(F)c3)CC2)nc1 [Example 52],0.36
15,COCc1cnc(N2CCC([C@H]3C[C@H]3CCOc3cc(F)c(CC(=O)N4CC(OC)C4)c(F)c3)CC2)nc1 [Example 225],0.35
16,COc1nnc2n1CCN(C(=O)Cc1ccc(OCC[C@@H]3C[C@@H]3C3CCN(c4ncc(Cl)cn4)CC3)cc1F)C2 [Example 137],3.9
17,CC1(CNC(=O)Cc2ccc(OCC[C@@H]3C[C@@H]3C3CCN(c4ncc(Cl)cn4)CC3)cc2F)CCC1 [Example 96],5.1
18,O=C(Cc1ccc(OCC[C@@H]2C[C@@H]2C2CCN(c3ncc(Cl)cn3)CC2)cc1F)N1CCn2c(nnc2C(F)(F)F)C1 [Example 133],0.91
19,CC1(C)CN(C(=O)Cc2ccc(OCC[C@@H]3C[C@@H]3C3CCN(c4ncc(Cl)cn4)CC3)cc2F)C1 [Example 70],0.8
20,"COCc1ccc(N2CCC([C@H]3C[C@H]3CCOc3ccc(CC(=O)N4CCC4)c(F)c3)CC2)nc1 [Example 237, 1-(azetidin-1-yl)-2-(2-fluoro-4-{2-[(1S,2R)-2-{1-[5-(methoxymethyl)pyridin-2-yl]piperidin-4-yl}cyclopropyl]ethoxy}phenyl)ethanone]",0.94
21,COCc1cnc(N2CCC([C@H]3C[C@H]3CCOc3cc(F)c(Cc4nnco4)c(F)c3)CC2)nc1 [Example 247],6.7
22,O=C(Cc1ccc(OCC[C@@H]2C[C@@H]2C2CCN(c3ncc(Cl)cn3)CC2)nc1)N1CCC1 [Example 242],9.4
23,CCc1cnc(N2CCC([C@H]3C[C@H]3CCOc3ccc(CC(=O)N(C)C)c(C)c3)CC2)nc1 [Example 19],2.3
24,O=C(Cc1ccc(OCC[C@@H]2C[C@@H]2C2CCN(c3ncc(Cl)cn3)CC2)cc1)N1CC(F)C1 [Example 6],0.89

row,SMILES,EC50 [nM]
1,COCc1cnc(N2CCC([C@H]3C[C@H]3CCOc3ccc(CC(=O)N4CCC[C@@H]4C)c(F)c3)CC2)nc1 [Example 49],1.6
2,CC1(NC(=O)Cc2ccc(OCC[C@@H]3C[C@@H]3C3CCN(c4ncc(Cl)cn4)CC3)cc2F)CCCCC1 [Example 91],9.3
3,CN(C(=O)Cc1ccc(OCC[C@@H]2C[C@@H]2C2CCN(c3ncc(Cl)cn3)CC2)cc1F)C1CCCCC1 [Example 164],1.6
4,COCc1cnc(N2CCC([C@H]3C[C@H]3CCOc3cc(F)c(CC(=O)N(C)C)c(F)c3)CC2)nc1 [Example 224],0.4
5,O=C(Cc1ccc(OCC[C@@H]2C[C@@H]2C2CCN(c3ncc(Cl)cn3)CC2)cc1F)N1CC(n2cccn2)C1 [Example 119],0.81
6,CCOc1cnc(N2CCC([C@H]3C[C@H]3CCOc3cc(F)c(CC(=O)N4CC(F)C4)c(F)c3)CC2)nc1 [Example 230],0.11
7,O=C(Cc1ccc(OCC[C@@H]2C[C@@H]2C2CCN(c3ncc(Cl)cn3)CC2)cc1F)N1CCC(F)(F)C1 [Example 72],0.5
8,"CCOCc1cnc(N2CCC([C@H]3C[C@H]3CCOc3ccc(CC(=O)N4CC(O)C4)c(F)c3)CC2)nc1 [Example 199, 2-(4-{2-[(1S,2R)-2-{1-[5-(ethoxymethyl)pyrimidin-2-yl]piperidin-4-yl}cyclopropyl]ethoxy}-2-fluorophenyl)-1-(3-hydroxyazetidin-1-yl)ethanone]",1.9
9,O=C(Cc1ccc(OCC[C@@H]2C[C@@H]2C2CCN(c3ncc(Cl)cn3)CC2)cc1F)N1CC(F)C1 [Example 68],0.33
10,O=C(Cc1ccc(OCC[C@@H]2C[C@@H]2C2CCN(c3ncc(Cl)cn3)CC2)cc1F)NC1CC1(F)F (some centres unmarked) [Example 88],1.7
11,COCc1cnc(N2CCC([C@H]3C[C@H]3CCOc3cc(F)c(CC(=O)N4CC(C)(O)C4)c(F)c3)CC2)nc1 [Example 221],2.1
12,COCCN(C)C(=O)Cc1ccc(OCC[C@@H]2C[C@@H]2C2CCN(c3ncc(Cl)cn3)CC2)cc1F [Example 104],1.3
13,COCc1cnc(N2CCC([C@H]3C[C@H]3CCOc3ccc(CC(=O)N4CCCCC4)c(F)c3)CC2)nc1 [Example 48],0.99
14,COc1cnc(N2CCC([C@H]3C[C@H]3CCOc3ccc(CC(=O)N(C)C)c(F)c3)CC2)nc1 [Example 36],1.7
15,O=C(Cc1ccc(OCC[C@@H]2C[C@@H]2C2CCN(c3ncc(Cl)cn3)CC2)cc1F)N1CCc2sccc2C1 [Example 185],2.2
16,CC(C)(O)Cn1cc2c(n1)CN(C(=O)Cc1ccc(OCC[C@@H]3C[C@@H]3C3CCN(c4ncc(Cl)cn4)CC3)cc1F)C2 [Example 124],3.2
17,CN(C(=O)Cc1ccc(OCC[C@@H]2C[C@@H]2C2CCN(c3ncc(Cl)cn3)CC2)cc1F)C1CCCC1 [Example 82],2.9
18,CN(CCCO)C(=O)Cc1ccc(OCC[C@@H]2C[C@@H]2C2CCN(c3ncc(Cl)cn3)CC2)cc1F [Example 153],1.6
19,COCc1cnc(N2CCC([C@H]3C[C@H]3CCOc3ccc(CC(=O)N4CCC4)cc3)CC2)nc1 [Example 9],3.8
20,COCc1cnc(N2CCC([C@H]3C[C@H]3CCOc3ccc(CC(=O)N4CCOCC4)cc3)CC2)nc1 [Example 10],8.3
21,COc1cnc(N2CCC([C@H]3C[C@H]3CCOc3ccc(CC(=O)N4CC(C)(O)C4)c(F)c3)CC2)nc1 [Example 35],2.2
22,Cc1nc2c(s1)CN(C(=O)Cc1ccc(OCC[C@@H]3C[C@@H]3C3CCN(c4ncc(Cl)cn4)CC3)cc1F)CC2 [Example 176],0.78
23,COc1cnc(N2CCC([C@H]3C[C@H]3CCOc3cc(F)c(CC(=O)N4CC(OC)C4)c(F)c3)CC2)nc1 [Example 211],0.11
